The values below come from patent US20090169652A1, “Personal Care Compositions” (priority 2007, published 2009).

The structures appear in SMILES notation.

Assay [1] deals with skin. Description: clinical study of skin condition. Conditions: clinical study by applicant. It is filed as in vivo.
Assay [2] has as its system MatTek human skin equivalent culture model. Kind of assay: collagen expression in MatTek human skin equivalent culture model. The assay is classed as cell-based.
Assay [3] relates to Xgene human skin equivalent culture model. Kind of assay: collagen expression in Xgene human skin equivalent culture model. The assay is classed as cell-based.

For `CC(=O)C1C(=O)C=C(C)OC1=O` (stereo not shown) [SDA, sodium dehydroacetic acid], the “appearance of fine lines and wrinkles” value in assay [1] was “unexpected improvement in the appearance of fine lines and wrinkles”. Further, the “skin condition related to reduced oil” value in assay [1] is given as “expected improvements in skin condition related to reduced oil”. The collagen expression entry in assay [2] and in assay [3] was “up-regulated collagen expression” in each case.
